Here are results for one compound from paper PMC5218480 (PLoS ONE, 2017).

The test system of the assay is MV-4-11 cells. Briefly: Gene expression microarray analysis (Affymetrix PrimeView) and GSEA. It is filed as cell-based, human. The arrangement: RFU PODN (11730768_x_at) / Fold change /veh PODN (11730768_x_at) / RFU LINC00158 (11744669_a_at) / Fold change /veh LINC00158 (11744669_a_at) / RFU DUSP10 (11751237_a_at) / Fold change /veh DUSP10 (11751237_a_at) / RFU ID3 (11757404_x_at) / Fold change /veh ID3 (11757404_x_at) / RFU PLEKHG5 (11737974_s_at) / Fold change /veh PLEKHG5 (11737974_s_at) / RFU LRRC4B (11730491_at) / Fold change /veh LRRC4B (11730491_at) / RFU GIMAP4 (11747438_a_at) / Fold change /veh GIMAP4 (11747438_a_at) / RFU KRT8 (11758183_x_at) / Fold change /veh KRT8 (11758183_x_at) / RFU CNN1 (11734310_a_at) / Fold change /veh CNN1 (11734310_a_at) / RFU VPS37D (11726825_at) / Fold change /veh VPS37D (11726825_at) / RFU C10orf10 (11716522_x_at) / Fold change /veh C10orf10 (11716522_x_at) / RFU KIR2DL2 /// KIR2DL4 /// KIR2DL5A /// KIR2DL5B /// KIR2DS1 /// KIR2DS2 /// KIR2DS3 /// KIR2DS4 /// KIR3DL3 /// KIR3DL3 /// KIR3DS1 (11738374_at) / Fold change /veh KIR2DL2 /// KIR2DL4 /// KIR2DL5A /// KIR2DL5B /// KIR2DS1 /// KIR2DS2 /// KIR2DS3 /// KIR2DS4 /// KIR3DL3 /// KIR3DL3 /// KIR3DS1 (11738374_at) / RFU C1QL1 (11718748_at) / Fold change /veh C1QL1 (11718748_at) / RFU TMPRSS4 (11747572_a_at) / Fold change /veh TMPRSS4 (11747572_a_at) / RFU HAMP (11756126_x_at) / Fold change /veh HAMP (11756126_x_at) / RFU RNFT2 (11725882_a_at) / Fold change /veh RNFT2 (11725882_a_at) / RFU NR4A2 (11747474_a_at) / Fold change /veh NR4A2 (11747474_a_at) / RFU ABCC12 (11746883_a_at) / Fold change /veh ABCC12 (11746883_a_at) / RFU TMEM136 (11760407_x_at) / Fold change /veh TMEM136 (11760407_x_at) / RFU CLDN22 /// WWC2 (11732394_at) / Fold change /veh CLDN22 /// WWC2 (11732394_at) / RFU HLA-DPB1 (11760878_x_at) / Fold change /veh HLA-DPB1 (11760878_x_at) / RFU SPINT1 (11716480_a_at) / Fold change /veh SPINT1 (11716480_a_at) / RFU GAP43 (11754022_s_at) / Fold change /veh GAP43 (11754022_s_at) / RFU A4GNT (11735810_at) / Fold change /veh A4GNT (11735810_at) / RFU PRB3 (11715151_x_at) / Fold change /veh PRB3 (11715151_x_at) / RFU TUBB4B (11761932_at) / Fold change /veh TUBB4B (11761932_at) / RFU CAPN14 (11732068_a_at) / Fold change /veh CAPN14 (11732068_a_at) / RFU TMCC2 (11721928_a_at) / Fold change /veh TMCC2 (11721928_a_at) / RFU IRGQ (11745062_a_at) / Fold change /veh IRGQ (11745062_a_at) / RFU FAM174B (11720279_a_at) / Fold change /veh FAM174B (11720279_a_at) / RFU TMPRSS4 (11748680_a_at) / Fold change /veh TMPRSS4 (11748680_a_at) / RFU FAM212B (11763350_a_at) / Fold change /veh FAM212B (11763350_a_at) / RFU PLEKHG5 (11743358_a_at) / Fold change /veh PLEKHG5 (11743358_a_at) / RFU ZSCAN30 (11745921_a_at) / Fold change /veh ZSCAN30 (11745921_a_at) / RFU CMKLR1 (11741424_a_at) / Fold change /veh CMKLR1 (11741424_a_at) / RFU LOC101060620 /// MAPK8IP1 (11723275_at) / Fold change /veh LOC101060620 /// MAPK8IP1 (11723275_at) / RFU SPTSSB (11747773_x_at) / Fold change /veh SPTSSB (11747773_x_at) / RFU PRSS12 (11739890_at) / Fold change /veh PRSS12 (11739890_at) / RFU BIN1 (11741810_x_at) / Fold change /veh BIN1 (11741810_x_at) / RFU WNT11 (11732464_a_at) / Fold change /veh WNT11 (11732464_a_at) / RFU C10orf10 (11716521_a_at) / Fold change /veh C10orf10 (11716521_a_at) / RFU C5orf56 (11738089_at) / Fold change /veh C5orf56 (11738089_at) / RFU CYB561 (11721691_x_at) / Fold change /veh CYB561 (11721691_x_at) / RFU ANKRD19P (11752326_a_at) / Fold change /veh ANKRD19P (11752326_a_at) / RFU OR2T12 /// OR2T33 /// OR2T8 (11738714_s_at) / Fold change /veh OR2T12 /// OR2T33 /// OR2T8 (11738714_s_at) / RFU VCAN (11748164_a_at) / Fold change /veh VCAN (11748164_a_at) / RFU JSRP1 (11732532_at) / Fold change /veh JSRP1 (11732532_at) / RFU KRTAP10-11 (11738290_x_at) / Fold change /veh KRTAP10-11 (11738290_x_at) / RFU MYO3A (11730013_a_at) / Fold change /veh MYO3A (11730013_a_at) / RFU EBF3 (11725865_a_at) / Fold change /veh EBF3 (11725865_a_at) / RFU CAMK2N1 (11719241_x_at) / Fold change /veh CAMK2N1 (11719241_x_at) / RFU C5orf56 (11738088_a_at) / Fold change /veh C5orf56 (11738088_a_at) / RFU OLFML3 (11715873_a_at) / Fold change /veh OLFML3 (11715873_a_at) / RFU LOC100653217 /// NTM (11731650_a_at) / Fold change /veh LOC100653217 /// NTM (11731650_a_at) / RFU MAPK11 (11762145_a_at) / Fold change /veh MAPK11 (11762145_a_at) / RFU FIZ1 (11724087_x_at) / Fold change /veh FIZ1 (11724087_x_at) / RFU OASL (11726364_x_at) / Fold change /veh OASL (11726364_x_at) / RFU SOX15 (11748057_x_at) / Fold change /veh SOX15 (11748057_x_at) / RFU CD79A (11719716_a_at) / Fold change /veh CD79A (11719716_a_at) / RFU HIST1H1D (11736915_at) / Fold change /veh HIST1H1D (11736915_at) / RFU CASKIN2 (11723855_a_at) / Fold change /veh CASKIN2 (11723855_a_at) / RFU LOC730098 (11760151_x_at) / Fold change /veh LOC730098 (11760151_x_at) / RFU OR4N2 (11742367_at) / Fold change /veh OR4N2 (11742367_at) / RFU PRRT2 (11749266_a_at) / Fold change /veh PRRT2 (11749266_a_at) / RFU SNX32 (11753110_a_at) / Fold change /veh SNX32 (11753110_a_at) / RFU CDHR5 (11726645_a_at) / Fold change /veh CDHR5 (11726645_a_at) / RFU RCAN1 (11760418_a_at) / Fold change /veh RCAN1 (11760418_a_at) / RFU FAM167A (11723789_a_at) / Fold change /veh FAM167A (11723789_a_at) / RFU FAM26E (11764081_at) / Fold change /veh FAM26E (11764081_at) / RFU ISYNA1 (11749810_s_at) / Fold change /veh ISYNA1 (11749810_s_at) / RFU ACY1 (11761880_at) / Fold change /veh ACY1 (11761880_at) / RFU 11764098_at / Fold change /veh 11764098_at / RFU SAMD14 (11745864_x_at) / Fold change /veh SAMD14 (11745864_x_at) / RFU NPB (11741838_a_at) / Fold change /veh NPB (11741838_a_at) / RFU TMPRSS6 (11731388_a_at) / Fold change /veh TMPRSS6 (11731388_a_at) / RFU KRTAP10-2 (11738614_at) / Fold change /veh KRTAP10-2 (11738614_at) / RFU ARHGAP8 /// PRR5-ARHGAP8 (11727945_x_at) / Fold change /veh ARHGAP8 /// PRR5-ARHGAP8 (11727945_x_at) / RFU KRTAP5-7 /// NADSYN1 (11734609_at) / Fold change /veh KRTAP5-7 /// NADSYN1 (11734609_at) / RFU RASL12 (11751679_a_at) / Fold change /veh RASL12 (11751679_a_at) / RFU CDKN2B (11736163_a_at) / Fold change /veh CDKN2B (11736163_a_at) / RFU PRF1 (11729649_at) / Fold change /veh PRF1 (11729649_at) / RFU, ZNF638 /// ZNF638-IT1 / Fold change vs veh, ZNF638 /// ZNF638-IT1 / RFU, PANK3 / Fold change vs veh, PANK3 / RFU, SH3YL1 / Fold change vs veh, SH3YL1 / RFU, ZEB2 / Fold change vs veh, ZEB2 / RFU, NRIP1 / Fold change vs veh, NRIP1 / RFU, PTTG1IP / Fold change vs veh, PTTG1IP / RFU, CAPN2 / Fold change vs veh, CAPN2 / RFU, MED14 / Fold change vs veh, MED14 / RFU, SNORA58 / Fold change vs veh, SNORA58 / RFU, C1orf63 / Fold change vs veh, C1orf63 / RFU, LRRFIP1 / Fold change vs veh, LRRFIP1 / RFU, NDUFAF7 / Fold change vs veh, NDUFAF7 / RFU, SLC12A2 / Fold change vs veh, SLC12A2 / RFU, IBTK / Fold change vs veh, IBTK / RFU, ESF1 / Fold change vs veh, ESF1 / Fold change vs veh, TMEM50B / RFU, TAOK1 / Fold change vs veh, TAOK1 / RFU, ACBD3 / Fold change vs veh, ACBD3 / RFU, TMA16 / Fold change vs veh, TMA16 / RFU, RWDD3 / Fold change vs veh, RWDD3 / RFU, BCAT1 / Fold change vs veh, BCAT1 / RFU, EDEM3 / Fold change vs veh, EDEM3 / RFU, TMEM33 / Fold change vs veh, TMEM33 / RFU, WDR75 / Fold change vs veh, WDR75 / RFU, AHCTF1 / Fold change vs veh, AHCTF1 / RFU, TFRC / Fold change vs veh, TFRC / RFU, ZDHHC17 / Fold change vs veh, ZDHHC17 / RFU, NOM1 / Fold change vs veh, NOM1 / RFU, ARL8B / Fold change vs veh, ARL8B / RFU, ZBTB11 / Fold change vs veh, ZBTB11 / RFU, TAMM41 / Fold change vs veh, TAMM41 / RFU, KIAA1704 /// LOC100996395 / Fold change vs veh, KIAA1704 /// LOC100996395 / RFU, ING1 / Fold change vs veh, ING1 / RFU, TRMT61B / Fold change vs veh, TRMT61B / RFU, FUBP3 / Fold change vs veh, FUBP3 / RFU, TP53 / Fold change vs veh, TP53 / RFU, TNKS2 / Fold change vs veh, TNKS2 / RFU, ZFP14 / Fold change vs veh, ZFP14 / RFU, ACTR2 / Fold change vs veh, ACTR2 / RFU, PPP3R1 / Fold change vs veh, PPP3R1 / RFU, PIK3R1 / Fold change vs veh, PIK3R1 / RFU, HNRNPA1 / Fold change vs veh, HNRNPA1 / RFU, RNF170 / Fold change vs veh, RNF170 / RFU, ZNF28 / Fold change vs veh, ZNF28 / RFU, RNGTT / Fold change vs veh, RNGTT / RFU, OGT / Fold change vs veh, OGT / RFU, BRD1 / Fold change vs veh, BRD1 / RFU, MARS / Fold change vs veh, MARS / RFU, ZNF655 / Fold change vs veh, ZNF655 / RFU, FAHD1 / Fold change vs veh, FAHD1 / RFU, BDP1 / Fold change vs veh, BDP1 / RFU, LRRCC1 / Fold change vs veh, LRRCC1 / RFU, ARID1A / Fold change vs veh, ARID1A / RFU, ZNF146 / Fold change vs veh, ZNF146 / RFU, ZNF330 / Fold change vs veh, ZNF330 / RFU, GPN3 / Fold change vs veh, GPN3 / RFU, C9orf123 / Fold change vs veh, C9orf123 / RFU, N4BP2L2 / Fold change vs veh, N4BP2L2 / RFU, ARFIP1 / Fold change vs veh, ARFIP1 / RFU, FAM179B / Fold change vs veh, FAM179B / RFU, BCL10 / Fold change vs veh, BCL10 / RFU, UHRF1BP1L / Fold change vs veh, UHRF1BP1L / RFU, BET1 / Fold change vs veh, BET1 / RFU, CNOT2 / Fold change vs veh, CNOT2 / RFU, ZNF268 / Fold change vs veh, ZNF268 / Fold change vs veh, ZNF507 / RFU, DGCR2 / Fold change vs veh, DGCR2 / RFU, WDSUB1 / Fold change vs veh, WDSUB1 / Fold change vs veh, HSP90B1 /// MIR3652 / RFU, ADSS / Fold change vs veh, ADSS / RFU, GK / Fold change vs veh, GK / RFU, ZNF148 / Fold change vs veh, ZNF148 / RFU, TAF9 / Fold change vs veh, TAF9 / RFU, SLC1A5 / Fold change vs veh, SLC1A5 / RFU, SLMO2 / Fold change vs veh, SLMO2 / RFU, ABCC4 / Fold change vs veh, ABCC4 / RFU, LOC101060439 /// RAP1B / Fold change vs veh, LOC101060439 /// RAP1B / RFU, RFX7 / Fold change vs veh, RFX7 / RFU, GTPBP10 / Fold change vs veh, GTPBP10 / RFU, CNEP1R1 / Fold change vs veh, CNEP1R1 / RFU, BIVM-ERCC5 /// ERCC5 / Fold change vs veh, BIVM-ERCC5 /// ERCC5 / RFU, ILF3 / Fold change vs veh, ILF3 / RFU 11762660_at / Fold change /veh 11762660_at / RFU VCAN (11757783_s_at) / Fold change /veh VCAN (11757783_s_at) / RFU DDX43 (11728927_at) / Fold change /veh DDX43 (11728927_at) / RFU KRT8 (11758188_x_at) / Fold change /veh KRT8 (11758188_x_at) / RFU NKD1 (11759106_at) / Fold change /veh NKD1 (11759106_at) / RFU SRD5A1 (11742802_a_at) / Fold change /veh SRD5A1 (11742802_a_at) / RFU TPSAB1 /// TPSB2 (11721975_s_at) / Fold change /veh TPSAB1 /// TPSB2 (11721975_s_at) / RFU GSTM3 (11746129_a_at) / Fold change /veh GSTM3 (11746129_a_at) / RFU IL23R (11737362_x_at) / Fold change /veh IL23R (11737362_x_at) / RFU TMEM51 (11727254_a_at) / Fold change /veh TMEM51 (11727254_a_at) / RFU PIWIL2 (11732686_x_at) / Fold change /veh PIWIL2 (11732686_x_at) / RFU ORM1 (11744905_x_at) / Fold change /veh ORM1 (11744905_x_at) / RFU CCDC152 (11743942_at) / Fold change /veh CCDC152 (11743942_at) / RFU ECM1 (11717891_a_at) / Fold change /veh ECM1 (11717891_a_at) / RFU IL23R (11748794_a_at) / Fold change /veh IL23R (11748794_a_at) / RFU TNFAIP8L3 (11732012_x_at) / Fold change /veh TNFAIP8L3 (11732012_x_at) / RFU MBOAT4 (11741988_at) / Fold change /veh MBOAT4 (11741988_at) / RFU 11764193_at / Fold change /veh 11764193_at / RFU TMEM53 (11763286_at) / Fold change /veh TMEM53 (11763286_at) / RFU MAGEB2 (11727129_at) / Fold change /veh MAGEB2 (11727129_at) / RFU TMEM200A (11744735_a_at) / Fold change /veh TMEM200A (11744735_a_at) / RFU CCDC152 (11751479_a_at) / Fold change /veh CCDC152 (11751479_a_at) / RFU FAM211A (11726209_a_at) / Fold change /veh FAM211A (11726209_a_at) / RFU RGS16 (11746705_a_at) / Fold change /veh RGS16 (11746705_a_at) / RFU VCAN (11755009_s_at) / Fold change /veh VCAN (11755009_s_at) / RFU RHOB (11743442_s_at) / Fold change /veh RHOB (11743442_s_at) / RFU RGS16 (11720943_a_at) / Fold change /veh RGS16 (11720943_a_at) / RFU RGS16 (11720944_at) / Fold change /veh RGS16 (11720944_at) / RFU, VPS4B / Fold change vs veh, VPS4B / RFU, CREB1 / Fold change vs veh, CREB1 / RFU, DNAJC13 / Fold change vs veh, DNAJC13 / RFU, GNAQ / Fold change vs veh, GNAQ / RFU, CDK5R1 / Fold change vs veh, CDK5R1 / RFU, ZRANB3 / Fold change vs veh, ZRANB3 / RFU, CUL4A / Fold change vs veh, CUL4A / RFU, CCNY / Fold change vs veh, CCNY / RFU, UFL1 / Fold change vs veh, UFL1 / RFU, COG3 / Fold change vs veh, COG3 / RFU, DIAPH2 / Fold change vs veh, DIAPH2 / RFU, SKA2 / Fold change vs veh, SKA2 / RFU, AFF3 / Fold change vs veh, AFF3 / RFU, LMF1 / Fold change vs veh, LMF1 / RFU, IPO11 / Fold change vs veh, IPO11 / RFU, DFFB / Fold change vs veh, DFFB / RFU, FOXP1 / Fold change vs veh, FOXP1 / RFU, CARD8 / Fold change vs veh, CARD8 / RFU, STRN3 / Fold change vs veh, STRN3 / RFU, ADK / Fold change vs veh, ADK / RFU, RASSF2 / Fold change vs veh, RASSF2 / RFU, WIPF1 / Fold change vs veh, WIPF1 / RFU, LARP1B / Fold change vs veh, LARP1B / RFU, RASA1 / Fold change vs veh, RASA1 / RFU, RB1 / Fold change vs veh, RB1 / RFU, PPFIA1 / Fold change vs veh, PPFIA1 / RFU, MAT2A / Fold change vs veh, MAT2A / RFU, CCT5 / Fold change vs veh, CCT5 / RFU, WDR92 / Fold change vs veh, WDR92 / RFU, CUX1 / Fold change vs veh, CUX1 / RFU, TTC7A / Fold change vs veh, TTC7A / RFU, TMEM135 / Fold change vs veh, TMEM135 / RFU, DEPTOR / Fold change vs veh, DEPTOR / RFU, CPM / Fold change vs veh, CPM / RFU, DNAJB6 / Fold change vs veh, DNAJB6 / RFU, CACNA2D3 / Fold change vs veh, CACNA2D3 / RFU, DTX4 / Fold change vs veh, DTX4 / RFU, TFCP2 / Fold change vs veh, TFCP2 / RFU, GMCL1 /// GMCL1P1 / Fold change vs veh, GMCL1 /// GMCL1P1 / RFU, AEBP2 / Fold change vs veh, AEBP2 / RFU, SNHG1 /// SNORD22 /// SNORD25 /// SNORD26 /// SNORD27 /// SNORD28 /// SNORD29 /// SNORD31 / Fold change vs veh, SNHG1 /// SNORD22 /// SNORD25 /// SNORD26 /// SNORD27 /// SNORD28 /// SNORD29 /// SNORD31 / Fold change (Aza/veh), C12orf56 (ProbeSet 11735607_a_at) / Fold change (ACY-1035/veh), C12orf56 (ProbeSet 11735607_a_at) / Fold change (Aza/veh), FGFR1OP (ProbeSet 11751329_s_at) / Fold change (ACY-1035/veh), FGFR1OP (ProbeSet 11751329_s_at) / Fold change (Aza/veh), VPS36 (ProbeSet 11739960_a_at) / Fold change (ACY-1035/veh), VPS36 (ProbeSet 11739960_a_at) / RFU SYPL1 (11715823_x_at) / Fold change /veh SYPL1 (11715823_x_at) / RFU IGFBP7 (11715501_s_at) / Fold change /veh IGFBP7 (11715501_s_at) / RFU REEP3 (11722064_at) / Fold change /veh REEP3 (11722064_at) / RFU IGLL1 (11728026_x_at) / Fold change /veh IGLL1 (11728026_x_at): dose or concentration left out as unconfirmed. The conditions noted are these: ProbeSet 11744854_x_at; LIST B.

The structures appear in SMILES notation.

In the case of `Nc1ncn([C@@H]2O[C@H](CO)[C@@H](O)[C@H]2O)c(=O)n1` [azacitidine], the “RFU, ZNF28” value was found to be 60.82 RFU.
